# Literature values in patent US10881700B1, “Compositions including extracts of gray mangrove leaves and methods of treatment using such compositions in treatment of viral infections” (KING ABDULLAH UNIVERSITY OF SCIENCE AND TECHNOLOGY, priority 2016, dated 2021).
# What was measured:
# [1] = target: HIV-1 integrase (Human immunodeficiency virus type 1 group M subtype B, UniProt P04585); details: reference [24]
# [2] = system: HIV-1 reactivation; details: reference [26]
SMILES,activity against HIV-1 integrase [1],blocking HIV-1 reactivation in cases of virus latency [2]
COC(=O)C=Cc1ccccc1 [Methyl cinnamate],not demonstrated activity,
"COc1ccccc1O [gluaiacol, 2-Methoxy phenol]",,efficient in blocking HIV-1 reactivation
